One experiment has as its system HT-1080 cells. Put plainly: HT-1080 cell viability assay (ferroptosis induced by RSL3, Cell Titer-Glo). In kind it is cell-based. The note with it: Homo sapiens, HT-1080, 20 h, ferroptosis inducer RSL3, 20 hours, ferroptosis inhibitory activity, Table 2. The method in brief:
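EC50 fitted by sigmoidal dose-response regression on luminescent viability data normalized to untreated cells. Compounds ran as a 10-point, 3-fold series from 1.1 μM alongside RSL3 for 20 hours, after overnight seeding.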
Background: ATP-based viability assays read luminescence as a measure of living cells.
In general, EC50 refers to the concentration that produces a half-maximal response. `CCCCC1CCN(c2ccc(NC3CCC(CN)CC3)c(C)n2)CC1` (stereo not drawn) [Compound 30, N-(4-(aminomethyl)cyclohexyl)-6-(4-butylpiperidin-1-yl)-2-methylpyridin-3-amine] came in with an EC50 of 0.1 to 100 nM.
`CC(C)(C)c1ccc(N[C@@H]2C[C@H](N)C[C@H](Nc3ccc(C(C)(C)C)cc3)C2)cc1` [Compound 351, (1R, 3S,5r)-N1,N3-bis(4-(tert-butyl)phenyl)cyclohexane-1,3,5-triamine] returned an EC50 of 0.1 to 100 nM.
On to `Cc1ccc(NC[C@H]2CC[C@H](N)CC2)cc1C` [Compound 316, N-(((1r,4r)-4-aminocyclohexyl)methyl)-3,4-dimethylaniline], for which the EC50 lay within 0.1 to 100 nM.
The same measure, in the same setting: the result for `CC(C)C1CCN(c2ncc(NC3C[C@H]4CC(NO)C[C@H]4C3)cn2)CC1` (stereo partly drawn) [Compound 401, N-((3aR, 6aS)-5-(hydroxyamino)octahydropentalen-2-yl)-2-(4-isopropylpiperidin-1-yl) pyrimidin-5-amine] reads 0.1 to 100 nM; that for `CC(C)(C)c1ccc(NC[C@H]2CC[C@H](N)CC2)cc1` [Compound 260, N-(((1r,4r)-4-aminocyclohexyl)methyl)-4-(tert-butyl)aniline], 0.1 to 100 nM; that for `Cc1nc(N2CCC(N3C[C@@H](C)O[C@@H](C)C3)CC2)ccc1NC1CC2(CC(N)C2)C1` (stereo partly drawn) [Compound 537, N2-(6-(4-((2S,6R)-2,6-dimethylmorpholino)piperidin-1-yl)-2-methylpyridin-3-yl)spiro[3.3]heptane-2,6-diamine], 100 to 1000 nM.
With `c1cc(C2CCCCC2)ccc1NC1CCNC1` (stereo not drawn) [Compound 108, N-(4-cyclohexylphenyl)pyrrolidin-3-amine], the EC50 lay within 100 to 1000 nM.
Same read-out and setting: the same measure for `CC1(C)CCC(c2ccc(NC3CC(C(N)=O)C3)cc2)CC1` (stereo not drawn) [Compound 145, 3-((4-(4,4-dimethylcyclohexyl)phenyl)amino)cyclobutane-1-carboxamide]: 0.1 to 100 nM; for `CC(=O)NC1CCC(Nc2ccc(C3CCC(C)(C)CC3)cc2)CC1` (single isomer, unassigned) [Compound 157A, N-(4-((4-(4,4-dimethylcyclohexyl)phenyl)amino)cyclohexyl)acetamide]: 0.1 to 100 nM.
Same read-out and setting: the same measure for `CC(C)(C)c1ccc(NC2C3CC4CC2CC(CN)(C4)C3)cc1` (stereo not drawn) [Compound 98, 5-(aminomethyl)-N-(4-(tert-butyl)phenyl)adamantan-2-amine]: 0.1 to 100 nM.
On the same count and under the same terms, the result for `CC(C)(C)c1ccc(NC2CC3(CC(N)C3)C2)cc1` (stereo not drawn) [Compound 276, N2-(4-(tert-butyl)phenyl)spiro[3.3]heptane-2,6-diamine] reads 0.1 to 100 nM.
For `CC1CN(c2ccc3cc(NC4CC5(CC(N)C5)C4)ccc3c2)CC(C)O1` (stereo not drawn) [Compound 564, N^2-(6-(2,6-dimethylmorpholino)naphthalen-2-yl)spiro[3.3]heptane-2,6-diamine], the EC50 was in the range of 0.1 to 100 nM.
Regarding `CN(C)CCNC1CCC(Nc2ccc(C(C)(C)C)cc2)CC1` (stereo not drawn) [Compound 257], the EC50 lay within 0.1 to 100 nM.
Turning to `Cc1c(NC2CCC(N)CC2)ccc(N2CCC(C(F)(F)F)CC2)c1F` (stereo not drawn) [Compound 57, N1-(3-fluoro-2-methyl-4-(4-(trifluoromethyl)piperidin-1-yl)phenyl)cyclohexane-1,4-diamine], the EC50 lay within 0.1 to 100 nM.
Still for that read-out and setting: the same measure for `CN(C)CCOC1CCC(Nc2ccc(C(C)(C)C)cc2)CC1` (stereo not drawn) [Compound 319A, 4-(tert-butyl)-N-(4-(2-(dimethylamino)ethoxy)cyclohexyl)aniline]: 100 to 1000 nM; for `CC1(C)CN(c2ccc(NC[C@H]3CC[C@H](N)CC3)cc2)CC(C)(C)O1` [Compound 445, N-(((1r,4r)-4-aminocyclohexyl)methyl)-4-(2,2,6,6-tetramethylmorpholino)aniline]: 0.1 to 100 nM; for `CCc1cc(NC2CCC(N)CC2)ccc1C(C)(C)C` (stereo not drawn) [Compound 329, 1-N-(4-(tert-butyl)-3-ethylphenyl)cyclohexane-1,4-diamine]: 0.1 to 100 nM.
On to `Cc1cc(N2CCC(C(F)(F)F)CC2)ccc1NCCCC[C@H]1CC[C@H](N)CC1` [Compound 447, N-(4-((1r,4s)-4-aminocyclohexyl)butyl)-2-methyl-4-(4-(trifluoromethyl)piperidin-1-yl)aniline], for which the EC50 fell in the range of 0.1 to 100 nM.
`Cc1cc(N2CCC(C)(C)CC2)ccc1NC1CCC(N)CC1` (stereo not drawn) [Compound 381, N1-(4-(4,4-dimethylpiperidin-1-yl)-2-methylphenyl)cyclohexane-1,4-diamine] yielded an EC50 of 0.1 to 100 nM.
On the same count and under the same terms, the same measure for `CC(C)(C)c1ccc(NC2CCC(NCCN)CC2)cc1` (stereo not drawn) [Compound 268, 1-N-(2-aminoethyl)-N4-(4-(tert-butyl)phenyl)cyclohexane-1,4-diamine]: 0.1 to 100 nM.
`CC(C)(C)c1ccc(NCc2cnc[nH]2)cc1` [Compound 130, N-((1H-imidazol-5-yl)methyl)-4-(tert-butyl)aniline]: the EC50 fell in the range of 100 to 1000 nM.
The same measure, in the same setting: the same measure for `CC1(C)CCC(c2ccc(NC3CCN(C(=O)[C@H]4CNC(=O)N4)CC3)cc2)CC1` [Compound 154, (R)-4-(4-((4-(4,4-dimethylcyclohexyl)phenyl)amino)piperidine-1-carbonyl) imidazolidin-2-one]: 100 to 1000 nM; for `COCCCCNc1ccc(N2CCC(C(F)(F)F)CC2)cc1` [Compound 12, N-(4-methoxybutyl)-4-(4-(trifluoromethyl)piperidin-1-yl)aniline]: 0.1 to 100 nM.
The same measure, in the same setting: the same measure for `Cc1cc(NC[C@H]2CC[C@H](N)CC2)cc(C)c1C` [Compound 314, N-(((1r,4r)-4-aminocyclohexyl)methyl)-3,4,5-trimethylaniline]: 0.1 to 100 nM; for `CC1(C)CCN(c2ncc(NC3CCC(N)CC3)cn2)CC1` (stereo not drawn) [Compound 45, N1-(2-(4,4-dimethylpiperidin-1-yl)pyrimidin-5-yl)cyclohexane-1,4-diamine]: 0.1 to 100 nM; for `Cc1nc(N2CC(C)OC(C)C2)ccc1NCCC1CCC(N)C1` (stereo not drawn) [Compound 490, N-(2-(3-aminocyclopentyl)ethyl)-6-(2,6-dimethylmorpholino)-2-methylpyridin-3-amine]: 0.1 to 100 nM.
`NC1CCC(Nc2cccc3c2CCO3)CC1` (stereo not drawn) [Compound 164, N1-(2,3-dihydrobenzofuran-4-yl)cyclohexane-1,4-diamine] returned an EC50 of 1000 to 10000 nM.
Same read-out and setting: the result for `CC(C)(C)c1ccc(NC2CCC(CN)C2)cc1` (stereo not drawn) [Compound 241, N-(3-(aminomethyl)cyclopentyl)-4-(tert-butyl)aniline] reads 0.1 to 100 nM.
Compound `CC1CCN(c2ncc(NC[C@H]3CC[C@H](N)CC3)cc2C(F)(F)F)CC1` [Compound 396, N-(((1r,4r)-4-aminocyclohexyl)methyl)-6-(4-methylpiperidin-1-yl)-5-(trifluoromethyl)pyridin-3-amine] showed an EC50 of 0.1 to 100 nM.
On the same count and under the same terms, the same measure for `CNCC1CCC(Nc2ccc(C3CCC(C)(C)CC3)cc2)CC1` (stereo not drawn) [Compound 86, 4-(4,4-dimethylcyclohexyl)-N-(4-((methylamino)methyl)cyclohexyl)aniline]: 0.1 to 100 nM; for `CC1(C)CCC(c2ccc(NC3CCC(NS(N)(=O)=O)CC3)cc2)CC1` (stereo not drawn) [Compound 249, N-(4-{[4-(4,4-dimethylcyclohexyl)phenyl]amino}cyclohexyl)aminosulfonamide]: 0.1 to 100 nM.

Staying with this experiment, now noted: Homo sapiens, HT-1080, 20 h, ferroptosis inducer RSL3, 20 hours, ferroptosis inhibitory activity, Table 3.
Compound `CN(CC(F)(F)F)c1ccc2cc(NC3CC(N)C3)ccc2n1` (stereo not drawn) [Compound 655, N^6-(3-aminocyclobutyl)-N^2-methyl-N^2-(2,2,2-trifluoroethyl) quinoline-2,6-diamine] came in with a 50% effective concentration (EC50) of 0.1 to 100 nM.
On the same count and under the same terms, the same measure for `NC1CC2(C1)CC(Nc1ccc3cc(N4CCOC(C(F)(F)F)C4)ccc3c1)C2` (stereo not drawn) [Compound 653, N2-(6-(2-(trifluoromethyl)morpholino)naphthalen-2-yl)spiro[3.3]heptane-2,6-diamine]: 0.1 to 100 nM; for `CCNc1ccc2cc(NC3CC4(CC(N)C4)C3)ccc2c1` (stereo not drawn) [Compound 658, N2-(6-aminospiro[3.3]heptan-2-yl)-N^6-ethylnaphthalene-2,6-diamine]: 0.1 to 100 nM; for `CC[C@@H]1CN(c2ccc(NC3CC4CCC(C3)N4)c(C)n2)C[C@H](CC)O1` (stereo partly drawn) [Compound 657, N-(6-((2S,6R)-2,6-diethylmorpholino)-2-methylpyridin-3-yl)-8-azabicyclo[3.2.1]octan-3-amine]: 0.1 to 100 nM.
On the same count and under the same terms, the result for `Cc1cc(NC[C@H]2CC[C@H](N)CC2)ccc1NC(C)(C)C` [Compound 622, N^4-(((1r,4r)-4-aminocyclohexyl)methyl)-N′-(tert-butyl)-2-methylbenzene-1,4-diamine] reads 0.1 to 100 nM.
Still for that read-out and setting: the result for `CCc1cc(N2C[C@@H](C)O[C@@H](C)C2)ccc1NC1CC2(CC(N)C2)C1` (stereo partly drawn) [Compound 640, N2-(4-((25,6R)-2,6-dimethylmorpholino)-2-ethylphenyl)spiro[3.3]heptane-2,6-diamine] reads 0.1 to 100 nM; that for `Cc1cc(N2CC(C)N(CC(F)(F)F)C(C)C2)ccc1NC1CC2(CC(N)C2)C1` (stereo not drawn) [Compound 636, N2-(4-(3,5-dimethyl-4-(2,2,2-trifluoroethyl)piperazin-1-yl)-2-methylphenyl)spiro[3.3]heptane-2,6-diamine], 0.1 to 100 nM.
As for `Cc1nc(N(C)CC(F)(F)F)ccc1NC1CC2CCC(C1)N2` (stereo not drawn) [Compound 656, N^5-(8-azabicyclo[3.2.1]octan-3-yl)-N^2,6-dimethyl-N^2-(2,2,2-trifluoroethyl)pyridine-2,5-diamine], the EC50 lay in the range of 0.1 to 100 nM.
Still for that read-out and setting: the same measure for `COC(C)(C)C1CCN(c2ccc(NC3CC(N)C3)c(C)n2)CC1` (stereo not drawn) [Compound 591]: 100 to 1000 nM.

The experiment is the same for the next values; noted with them: Homo sapiens, ferroptosis inducer RSL3, 20 hours, ferroptosis inhibitory activity, Table 2.
Take `NC(=O)[C@@H]1CCC(Nc2ccc(N3CCC(C(F)(F)F)CC3)cc2)[C@@H](N)C1` (stereo in doubt) [Compound 502, (1R,3S)-3-amino-4-((4-(4-(trifluoromethyl)piperidin-1-yl)phenyl)amino)cyclohexane-1-carboxamide]: the EC50 was 0.1 to 100 nM.

Still in this experiment, the particulars now being: ferroptosis inducer RSL3, 20 hours, ferroptosis inhibitory activity, Table 2.
As for `CC1(C)CCC(c2ccc(NC3CCC(C(N)=O)CC3)cc2)CC1` (single isomer, unassigned) [Compound 159A, 4-((4-(4,4-dimethylcyclohexyl)phenyl)amino)cyclohexane-1-carboxamide], the EC50 was 0.1 to 100 nM.

(Values after patent publication US20240360114A1 (SIRONAX LTD., priority 2021, published 2024).)
